Measurements published in PMC7588429, “Structure/activity virtual screening and in vitro testing of small molecule inhibitors of 8-hydroxy-5-deazaflavin:NADPH oxidoreductase from gut methanogenic bacteria” (Scientific Reports, 2020).
Read-outs that look alike come from different tables or passages of the source.

How the values were obtained:
[1] = target: T1, FNO from M. smithii (Methanobrevibacter smithii, UniProt A5UJ76); experiment: SPR optical biosensor binding to immobilized FNO; settings: for kon / koff / kass / kdiss: PBS pH 7.4; for kon: read-out: kass; for koff: read-out: kdiss
T1 sequence (A5UJ76 entry or part of it): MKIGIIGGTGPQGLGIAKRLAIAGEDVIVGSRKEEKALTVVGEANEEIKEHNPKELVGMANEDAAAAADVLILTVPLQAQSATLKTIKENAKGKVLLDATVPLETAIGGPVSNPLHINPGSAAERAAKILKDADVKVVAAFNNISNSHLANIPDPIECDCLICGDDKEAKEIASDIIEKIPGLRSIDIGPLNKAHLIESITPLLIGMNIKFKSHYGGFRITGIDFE
Method: FNO was covalently immobilized on a carboxylate surface according to the protocol described in the Materials and Methods section. The change in the signal related to immobilization of the enzyme (ΔR ≅ 1,000 arcsec) corresponded to the achievement of a partial Langmuir monolayer for a protein of 120 kDa (2 ng/mm^2). The affinities of FNO for the ten compounds of interest were derived from the fit of raw data (representative sensorgrams are shown in Fig. 8; full panel is provided in Supplemental Information) to a mono-exponential model.
FNO from M. smithii (isolated as described in the Supplementary Information) was covalently coupled to the carboxylate surface of the sensor via EDC/NHS chemistry. Upon successful immobilization of FNO, unreacted carboxyl groups were blocked with ethanolamine 1 M pH 8.5, and the surface was eventually equilibrated with PBS. Independent additions of each molecule at different concentrations (β-D-glucose pentacetate 1.25–62.5 µM; mangiferin 3.125–37.5 µM; baicalin 1.25–25 µM; frangulin A 30–480 nM; ononin 29–465 nM; 5z-caffeoylquinic acid […]; ZINC35442308 0.30–4.92 µM; ZINC248099510 0.31–4.93 µM; ZINC2120951 0.32–5.1 µM; ZINC9271779 0.32–5.2 µM) to surface-blocked FNO were performed, each time monitoring the association kinetics until equilibrium. […] The affinities between surface-blocked FNO and soluble ligands were derived from the fit of raw data to single exponential model.

[2] = target: T1, FNO from M. smithii; experiment: Fluorometric FNO activity inhibition assay (F420 reduction with NADPH); assay type: biochemical
Method: According to the fluorometric assay of FNO activity, we observed an evident decrease in F420 reduction rates upon 15 min preincubation of FNO with increasing levels of the ten representative compounds of interest (the superimposition of representative residual activity plots obtained with β-D-glucose pentaacetate, mangiferin and baicalin are shown in Fig. 11; the full panel is provided in Supplemental Information).
FNO catalyses the reduction of NADP^+ with F420H2 via hydride transfer, and the reverse reaction, i.e. the reduction of F420 with NADPH. Here, the spectrofluorometric assay of FNO activity was based on monitoring the decrease in F420 emission at 470 nm upon excitation at 420 nm. Briefly, FNO (4 nM) was incubated with 0.5 mM F420 (purified from T. roseum as described in the Supplementary Information) and 0.5 mM NADPH (this concentration was selected on the basis of Km values in other methanogenic organisms[42]) at 37 °C in the presence or in the absence of increasing concentrations of the compounds of interest in 50 mM sodium citrate, pH 6.0. […] The residual activity ( a ) was expressed as the ratio of the initial velocities of the product formation in the presence ( V0,i ) and in the absence ( V0 ) of a given inhibitor concentration [Ii]. Raw data were processed as described elsewhere.

[3] = test system: FNO; experiment: Competitive binding test with NADP+ on biosensor; set-up: species or system Methanobrevibacter smithii
Method: A competitive binding test between NADP^+ and three out of the ten compounds (with high, moderate and low affinity for FNO, respectively) was performed to identify the binding site on FNO. The protocol involved the addition of a given concentration of baicalin, mangiferin and β-D-glucose pentaacetate to both free and NADP^+-saturated FNO.

[4] = test system: FNO; experiment: pH dependence of mangiferin-FNO binding (biosensor, linkage analysis); settings: 7.35 ± 0.33 in free enzyme
Method: In order to evaluate the effects of pH on the enzyme-ligand interaction, the binding of mangiferin (6.25–62.5 µM) to FNO was studied at different pH values in the range 6.0–8.0.
To evaluate the effects of pH on the enzyme-ligand interaction, the binding studies between mangiferin and FNO were replicated in a pH range between 6.4 and 8. The observed dependence of experimental KD from pH was analyzed according to a classic linkage relationship, protons being considered as heterotropic ligands for FNO[40]. This model involves a macromolecule (FNO) having a binding site for a ligand (mangiferin), and heterotropic binding sites able to accommodate a second ligand (H^+). These binding sites for protons present on the macromolecule can be grouped into two main sets: one with n binding sites with an ionization constant λ1, and one with m binding sites, each having an ionization constant equal to λ2. Therefore, the macromolecule can be described in three main ionization conditions: at low and at high pH values the fully protonated and the completely deprotonated forms prevail, respectively, whereas the intermediate form prevails at pH values equal to:1 pH=-logλ1-logλ2/2
Upon binding, the proton binding sites have their ionization constants shifted to λ3 and λ4, respectively. […]

[5] = target: T1, FNO from M. smithii; experiment: Molecular docking (AutoDock Vina) onto the homology model of FNO; settings: predicted
Source text: The 8,012 compounds selected from the Zbc database subset on molecular weight and clogP criteria were individually docked against the homology model of FNO from M. smithii using a Perl/Python pipeline on AutoDock Vina. The residues constituting the catalytic site of FNO were retrieved from the available literature[19] and explicitly defined as the grid centre for all ligands. The quantitative results of docking in terms of ΔGpred of each highest-score pose were collected into a single array (ΔGpred values ranged between − 4.9 and − 10.5 kcal/mol), which was then merged with the other structural descriptors (as PSA, H-donors and acceptors, cLogP, MW, Drug-likeness, Total surface area) available for each compound as summarized in Supplementary Information.
In the absence of a crystallographic structure for FNO from M. smithii, its three-dimensional structure was obtained by homology modelling, according to a previously reported procedure. […]
8,012 molecules selected from the Zbc subset of ZINC database[36] on molecular weight (350–450 amu) and hydrophobicity (cLogP < 3.85) criteria were iteratively docked to the homology model of FNO from M. smithii using AutoDock Vina[37]. […] Structural properties of each molecule and calculated binding affinities to FNO were globally analysed with DataWarrior[38].

[6] = experimental equilibrium constant, read-out: KD,E
[7] = 0.5 mM NADPH, 15 min preincubation, pH 6.0, 37 °C, read-out: Ki
[8] = 0.5 mM NADPH, 15 min preincubation, pH 6.0, 37 °C

Row | Compound | kon [1] [M⁻¹ s⁻¹] | koff [1] [s⁻¹] | Kd [1, 6] [nM] | Ki [2, 7] [nM] | kass [1] | kdiss [1] [s⁻¹] | Ki [2, 8] [nM] | biosensor response on NADP+-saturated FNO with respect to free enzyme [3] | further results
1 | COc1ccc(-c2coc3cc(O[C@@H]4O[C@H](CO)[C@@H](O)[C@H](O)[C@H]4O)ccc3c2=O)cc1 [Ononin] | 29700 | 0.0072 ± 0.0033 | 240 ± 110 | 205 ± 69 |  |  |  |  | 
2 | Nc1ncnc2c1nc(NN=Cc1ccccc1)n2C1OC(CO)C(O)C1O (stereo not drawn) [ZINC9271779] |  |  | 6800 ± 1700 |  | 1,147 ± 267 M^−1 s^−1 | 0.0078 ± 0.0008 | 1070 ± 340 |  | 
3 | O=c1c2cc(O)c(O)cc2oc2cc(O)c([C@@H]3O[C@H](CO)[C@@H](O)[C@H](O)[C@H]3O)c(O)c12 [Mangiferin] | 4820 | 0.002 ± 0.00097 | 400 ± 200 | 650 ± 250 |  |  |  | significantly lower | pKa of histidine residue in FNO-mangiferin complex ([4]; pH 6.4 to 7.4): 5.26 ± 2.61; pKa of histidine residue in FNO-mangiferin complex ([4]; pH 7.4 to 8.0): 8.21 ± 0.12; affinity for FNO with respect to ZINC05409528 [5]: nearly sevenfold lower affinity
4 | CC(=O)OC[C@H]1O[C@@H](OC(C)=O)[C@H](OC(C)=O)[C@@H](OC(C)=O)[C@@H]1OC(C)=O [β-D-glucose pentaacetate] | 2720 | 0.013 ± 0.005 | 4850 ± 1850 | 3960 ± 200 |  |  |  | significantly lower | 
5 | O=C(C=Cc1ccc(O)c(O)c1)OC1CC(O)(C(=O)O)CC(O)C1O (stereo not drawn) [5z-caffeoylquinic acid] |  |  | 230 ± 160 |  | 20,406 ± 2,270 M^−1 s^−1 | 0.005 ± 0.003 | 210 ± 140 |  | 
6 | COc1cc(OC)c2c(C)c(CC(=O)NCC(=O)NCC(=O)O)c(=O)oc2c1 [ZINC2120951] |  |  | 1650 ± 410 |  | 2,423 ± 116 M^−1 s^−1 | 0.004 ± 0.001 | 970 ± 670 |  | 
7 | O=C(O)[C@H]1O[C@@H](Oc2cc3oc(-c4ccccc4)cc(=O)c3c(O)c2O)[C@H](O)[C@@H](O)[C@@H]1O [Baicalin] | 3870 | 0.00025 ± 0.0001 |  |  |  |  |  | significantly lower | Kd [1]: 65 ± 28 nM; Ki [2]: 45 ± 3 nM
8 | Cc1cc(O)c2c(c1)C(=O)c1cc(O[C@@H]3O[C@@H](C)[C@H](O)[C@@H](O)[C@H]3O)cc(O)c1C2=O [Frangulin A] | 35200 | 0.0045 ± 0.0014 | 130 ± 50 | 49 ± 14 |  |  |  |  | increase of inhibitory potency from β-D-glucose pentaacetate ([2]; 0.5 mM NADPH): approximately 100 fold
